Measured values as given in patent publication US12691070B2, “Cationic lipids and preparation method thereof” (RiboX Therapeutics HK Limited, priority 2023, dated 2026).

Legend:
[1] = LNP size and polydispersity index (PDI) by dynamic light scattering; format: physicochemical; conditions: for Size: in nm (unit assumed)
In short: (§1)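 Dynamic light scattering and zeta potential measurements were run on PBS-dialyzed LNPs, which had been formed by microfluidic mixing at 12 ml/min with final lipid at 1.5 mM to 6 mM. RNA content and percent encapsulation were determined by Ribogreen with and without Triton X-100.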

[2] = LNP zeta potential (Zetasizer); format: physicochemical
In short: as §1

[3] = RNA encapsulation efficacy by Quant-IT Ribogreen kit; format: physicochemical; conditions: for Encapsulation Efficiency %: LNP with cirRNA (SEQ ID NO: 1); for Encapsulation Efficiency: LNP with mRNA (SEQ ID NO: 2)
In short: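 Ribogreen read-out: encapsulation = 100% − (signal of intact RNA-LNPs / signal with Triton X-100). Particles: ionizable lipid:DSPC:Chol:DMG-PEG2000 50:10:38.5:1.5, ionizable lipid:ribonucleotide 15 or 6, final lipid 1.5–6 mM, PBS-dialyzed.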

[4] = test system: Hep G2 cells; test: In vitro expression of firefly-luciferase, Hep G2; format: cell-based
In short: (§2)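 Both cell lines receive RNA-LNPs carrying firefly-luciferase RNA at 100 ng/mL. Lysis follows washing at 72 h post-transfection, and luciferase activity is then quantified on a luminometer using a commercial luciferase assay reagent.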

[5] = test system: RAW 264.7 cells; test: In vitro expression of firefly-luciferase, RAW 264.7; format: cell-based
In short: as §2

[6] = test system: Hep G2 cells; test: In vitro toxicity (CellTiter-Glo cell viability), Hep G2; format: cell-based;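 note: percent of untreated cells luminescence signal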
In short: (§3)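 Toxicity of RNA-LNPs (1 μg/mL) is reported as cell viability, calculated from CellTiter-Glo luminescence measured at 72 hours after transfection.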

[7] = test system: RAW 264.7 cells; test: In vitro toxicity (CellTiter-Glo cell viability), RAW 264.7; format: cell-based;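 note: percent of untreated cells luminescence signal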
In short: as §3

[8] = test system: BALB/C mice; test: In vivo expression, whole-body luminescence (IVIS)
Description: 6-8 week old, female BALB/C mice were injected with 0.05 mg*kg-1 of RNA-LNPs encoding for firefly-luciferase by intravenous injection. At 6 hours post injection, animals were intraperitoneally injected with 15 mg/ml of Luciferin substrate and whole-body luminescence was determined by a bioluminescent in vivo imaging system (IVIS).

[9] = test system: MCP-I; test: MCP-I cytokine elevation in serum; format: in vivo; conditions: cirRNA (SEQ ID NO: 1) LNPs, mice
Description: 6-8 week old, female BALB/C mice were injected with 0.5 mg*kg-1 of RNA LNPs by intravenous injection. At 2 and 24 hours post injection, animals were bled and sera concentrations of MCP-I were determined by an immunoassay (Luminex).

[10] = test system: Alanine Aminotransferase (ALT); test: Liver enzyme elevation in serum, ALT; format: in vivo; conditions: cirRNA (SEQ ID NO: 1) LNPs, BALB/C mice, intravenous 0.5 MPK
Description: (§4) 6-8 week old, female BALB/C mice were injected with 0.5 mg*kg-1 of RNA LNPs by intravenous injection. At 2 and 24 hours post injection, animals were bled and sera concentrations of Alanine Aminotransferase (ALT) and Aspartate Aminotransferase (AST) were determined by a blood chemistry analyzer.

[11] = test system: Aspartate Aminotransferase (AST); test: Liver enzyme elevation in serum, AST; format: in vivo; conditions: cirRNA (SEQ ID NO: 1) LNPs, BALB/C mice, intravenous 0.5 MPK
Description: as §4

[12] = test system: BALB/C mice; test: Local tolerance determination by footpad injection; format: in vivo; conditions: cirRNA (SEQ ID NO: 1) LNP, 0.175 mg*kg-1 subcutaneous into the footpad, 24 hours post minus prior
Description: 6-8 week old, female BALB/C mice were injected with 0.175 mg*kg-1 RNA LNPs by subcutaneous injection into the footpad. Prior to, and 24 hours post injections, injected footpad thickness was determined by a caliper.

[13] = cirRNA (SEQ ID NO: 1) LNPs, firefly-luciferase luminescence, Hep G2 cells
[14] = mRNA (SEQ ID NO: 2) LNP, 100 ng/mL, 72 hours post transfection, luciferase activity
[15] = cirRNA (SEQ ID NO: 1) LNPs, firefly-luciferase luminescence, RAW 264.7 cells
[16] = cirRNA (SEQ ID NO: 1) LNPs, Hep G2 cells
[17] = mRNA (SEQ ID NO: 2) LNP, 1 μg/mL, 72 hours post transfection
[18] = cirRNA (SEQ ID NO: 1) LNPs, RAW 264.7 cells
[19] = cirRNA (SEQ ID NO: 1) LNPs, BALB/C mice
[20] = mRNA (SEQ ID NO: 2) LNP, 0.05 mg*kg-1 intravenous, 6 hours post injection

Structure (SMILES) | PDI ([1]; LNP with cirRNA (SEQ ID NO: 1)) | Size ([1]; LNP with cirRNA (SEQ ID NO: 1)) | PDI ([1]; LNP with mRNA (SEQ ID NO: 2)) | Size ([1]; LNP with mRNA (SEQ ID NO: 2)) | Zeta (mV) ([2]; LNP with cirRNA (SEQ ID NO: 1)) | Zeta (mV) ([2]; LNP with mRNA (SEQ ID NO: 2)) | Encapsulation Efficiency % [3] | Encapsulation Efficiency [3] | In vitro Expression HepG2 [4, 13] | In vitro Expression HepG2 [4, 14] | In vitro Expression RAW [5, 15] | In vitro Expression RAW [5, 14] | In vitro Viability HepG2 [6, 16] | In vitro Viability HepG2 [6, 17] | In vitro Viability RAW [7, 18] | In vitro Viability RAW [7, 17] | In vivo Expression (Whole Body) [8, 19] | In vivo Expression (Whole Body) [8, 20] | MCP-I in Sera 2 hours After 0.5 MPK Injection [9] | MCP-I in Sera 24 hours After 0.5 MPK Injection [9] | further results
CCCCC/C=C\C/C=C\CCCCCCCCN(CCCCCCCC(=O)OC(CCCCCCCC)CCCCCCCC)CCCOC(=O)NCCN1CCCCC1 [Lipid 278] | 0.1471 | 91.92 | 0.1831 | 119 | 0.06032 mV | 0.3567 mV | 96% | 86.19% | 2.22E+07 | 3.75E+07 | 8.67E+06 | 6.01E+06 | 91% | 100% | 132% | 83% | 1.19E+08 | 2.18E+08 | 1815.67 pg/mL | 1070.74 pg/mL | ALT in Sera (IU/L) 2 hours After 0.5 MPK Injection [10]: 177.33 IU/L; ALT in Sera (IU/L) 24 hours After 0.5 MPK Injection [10]: 102.50 IU/L; AST in Sera (IU/L) 2 hours After 0.5 MPK Injection [11]: 275.33 IU/L; AST in Sera (IU/L) 24 hours After 0.5 MPK Injection [11]: 322.67 IU/L; Footpad Thickness (24 h−0 h, mm) [12]: 0.63 mm
CCCCCCCCC(CCCCCCCC)OC(=O)CCCCCCCN(CCCCCCCCOC(=O)C(CCCCCC)CCCCCCCC)CCCOC(=O)NCCN(C)C (centres unmarked) [Lipid 344] | 0.1332 | 98.08 | 0.1063 | 97.82 | 2.343 mV | 1.967 mV | 97% | 93.45% | 1.08E+07 | 8.78E+07 | 1.97E+06 | 1.59E+07 | 96% | 78% | 94% | 88% | 7.43E+07 | 2.15E+09 | 7150.00 pg/mL | 946.87 pg/mL | ALT in Sera (IU/L) 2 hours After 0.5 MPK Injection [10]: 161.67 IU/L; ALT in Sera (IU/L) 24 hours After 0.5 MPK Injection [10]: 204.33 IU/L; AST in Sera (IU/L) 2 hours After 0.5 MPK Injection [11]: 333.67 IU/L; AST in Sera (IU/L) 24 hours After 0.5 MPK Injection [11]: 340.00 IU/L; Footpad Thickness (24 h−0 h, mm) [12]: 0.53 mm
CCCCCCCCC(CCCCCCCC)OC(=O)CCCCCCCN(CCCCCCCCOC(=O)C(CCCCCC)CCCCCCCC)CCCOC(=O)NCCCN(C)C (centres unmarked) [Lipid 348] | 0.2546 | 100.8 | 0.1488 | 101.8 | 1.734 mV | 8.774 mV | 98% | 83.15% | 1.59E+06 | 1.45E+07 | 2.47E+05 | 2.52E+03 | 65% | 60% | 73% | 77% | 6.47E+07 | 1.87E+07 | 1894.33 pg/mL | 128.60 pg/mL | ALT in Sera (IU/L) 2 hours After 0.5 MPK Injection [10]: 82.33 IU/L; ALT in Sera (IU/L) 24 hours After 0.5 MPK Injection [10]: 96.33 IU/L; AST in Sera (IU/L) 2 hours After 0.5 MPK Injection [11]: 307.00 IU/L; AST in Sera (IU/L) 24 hours After 0.5 MPK Injection [11]: 148.00 IU/L; Footpad Thickness (24 h−0 h, mm) [12]: 0.78 mm
CCCCCCCCC(CCCCCCCC)OC(=O)CCCCCCCN(CCCCCCCCOC(=O)C(CCCCCC)CCCCCCCC)CCCOC(=O)NCCN1CCCC1 (centres unmarked) [Lipid 350] | 0.1717 | 112.8 | 0.1151 | 105.3 | 6.91 mV | 0.9211 mV | 97% | 83.19% | 1.43E+07 | 4.34E+07 | 3.38E+06 | 5.78E+06 | 95% | 111% | 74% | 86% | 1.03E+08 | 5.29E+08 | 6084.33 pg/mL | 2039.50 pg/mL | ALT in Sera (IU/L) 2 hours After 0.5 MPK Injection [10]: 105.67 IU/L; ALT in Sera (IU/L) 24 hours After 0.5 MPK Injection [10]: 121.33 IU/L; AST in Sera (IU/L) 2 hours After 0.5 MPK Injection [11]: 368.00 IU/L; AST in Sera (IU/L) 24 hours After 0.5 MPK Injection [11]: 362.67 IU/L; Footpad Thickness (24 h−0 h, mm) [12]: 0.55 mm
CCCCCCCCC(CCCCCCCC)OC(=O)CCCCCCCN(CCCCCCCCOC(=O)C(CCCCCC)CCCCCCCC)CCCOC(=O)NCCN1CCCCC1 (centres unmarked) [Lipid 351] | 0.1705 | 99.16 | 0.3512 | 178.8 | −0.1951 mV | −4.142 mV | 95% | 66.39% | 1.87E+06 | 1.00E+07 | 6.44E+05 | 3.41E+06 | 96% | 87% | 98% | 94% | 1.35E+08 | 1.71E+08 | 3172.67 pg/mL | 1133.74 pg/mL | ALT in Sera (IU/L) 2 hours After 0.5 MPK Injection [10]: 74.33 IU/L; ALT in Sera (IU/L) 24 hours After 0.5 MPK Injection [10]: 149.33 IU/L; AST in Sera (IU/L) 2 hours After 0.5 MPK Injection [11]: 232.67 IU/L; AST in Sera (IU/L) 24 hours After 0.5 MPK Injection [11]: 389.33 IU/L; Footpad Thickness (24 h−0 h, mm) [12]: 0.68 mm
